Target: D(3) dopamine receptor (Homo sapiens) (UniProt P35462)
Sequence (P35462 whole entry): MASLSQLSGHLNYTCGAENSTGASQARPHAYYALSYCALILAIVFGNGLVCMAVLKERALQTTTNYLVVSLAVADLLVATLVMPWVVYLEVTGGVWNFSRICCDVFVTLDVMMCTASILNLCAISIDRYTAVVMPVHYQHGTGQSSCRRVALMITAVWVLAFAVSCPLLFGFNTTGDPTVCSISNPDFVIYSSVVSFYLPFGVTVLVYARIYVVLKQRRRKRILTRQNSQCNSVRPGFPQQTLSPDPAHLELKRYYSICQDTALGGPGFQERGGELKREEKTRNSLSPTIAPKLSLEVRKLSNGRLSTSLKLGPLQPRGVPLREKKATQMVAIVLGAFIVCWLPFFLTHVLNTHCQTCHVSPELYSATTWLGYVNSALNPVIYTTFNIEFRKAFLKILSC
Assay: Displacement of [3H]Spiperone from recombinant human Dopamine D3 receptor expressed in CHO cell membranes at 10 uM after 120 mins relative to control
Details: not given
Work on `COc1ccc2c(CN3CCC(F)(F)[C@H](CCc4cccc(F)c4)C3)c[nH]c2c1` yielded an inhibition of 85%. For `Fc1ccc(CC[C@@H]2CN(Cc3c[nH]c4cc(Cl)ccc34)CCC2(F)F)cc1`, the inhibition was < 50%. Work on `COc1ccc2c(CN3CCC(F)(F)[C@H](CCc4ccc(F)cc4)C3)c[nH]c2c1` yielded an inhibition of 52%. `Fc1ccc(CC[C@@H]2CN(Cc3c[nH]c4cc(F)ccc34)CCC2(F)F)cc1` gave an inhibition of 85%.

Tested on: not listed separately
Assay: Unbound fraction in human plasma by HPLC/MS based equilibrium dialysis method
Assay type: ADME, cell-free
Details: not given
In the case of `COc1ccc2c(CN3CCC(F)(F)[C@H](CCc4cccc(F)c4)C3)c[nH]c2c1`, the fraction unbound is reported as 0.003. Work on `Fc1ccc(CC[C@@H]2CN(Cc3c[nH]c4cc(Cl)ccc34)CCC2(F)F)cc1` yielded a fraction unbound of 0.001. `COc1ccc2c(CN3CCC(F)(F)[C@H](CCc4ccc(F)cc4)C3)c[nH]c2c1` showed a fraction unbound of 0.018. `Fc1ccc(CC[C@@H]2CN(Cc3c[nH]c4cc(F)ccc34)CCC2(F)F)cc1` showed a fraction unbound of 0.004.

Target: D(1B) dopamine receptor (Homo sapiens) (UniProt P21918)
Sequence (P21918 whole entry): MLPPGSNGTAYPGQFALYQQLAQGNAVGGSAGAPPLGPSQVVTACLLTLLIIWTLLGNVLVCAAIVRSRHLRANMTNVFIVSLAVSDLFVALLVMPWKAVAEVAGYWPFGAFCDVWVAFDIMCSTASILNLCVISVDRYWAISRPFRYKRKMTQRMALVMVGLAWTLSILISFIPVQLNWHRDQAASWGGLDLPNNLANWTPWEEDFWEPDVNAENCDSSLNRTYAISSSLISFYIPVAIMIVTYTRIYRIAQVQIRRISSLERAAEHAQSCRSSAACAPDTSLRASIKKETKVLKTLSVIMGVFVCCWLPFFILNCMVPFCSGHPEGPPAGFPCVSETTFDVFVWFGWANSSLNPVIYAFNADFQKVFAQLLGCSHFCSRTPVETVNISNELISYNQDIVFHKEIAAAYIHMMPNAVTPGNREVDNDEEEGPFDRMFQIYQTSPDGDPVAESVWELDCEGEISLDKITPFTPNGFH
Assay: Displacement of [3H]SCH-23390 from recombinant human Dopamine D5 receptor expressed in CHO cell membranes at 10 uM after 120 mins relative to control
Details: not given
In the case of `COc1ccc2c(CN3CCC(F)(F)[C@H](CCc4cccc(F)c4)C3)c[nH]c2c1`, the inhibition is reported as < 50%. In the case of `Fc1ccc(CC[C@@H]2CN(Cc3c[nH]c4cc(Cl)ccc34)CCC2(F)F)cc1`, the inhibition is reported as < 50%. In the case of `COc1ccc2c(CN3CCC(F)(F)[C@H](CCc4ccc(F)cc4)C3)c[nH]c2c1`, the inhibition is reported as < 30%. In the case of `Fc1ccc(CC[C@@H]2CN(Cc3c[nH]c4cc(F)ccc34)CCC2(F)F)cc1`, the inhibition is reported as < 50%.

Tested on: not listed separately
Assay: Plasma concentration in rat at 0.25 mg/kg, iv administered through cassette dosing after 0.25 hrs by LC/MS/MS analysis
Assay type: ADME, organism-based
Details: not given
Work on `COc1ccc2c(CN3CCC(F)(F)[C@H](CCc4cccc(F)c4)C3)c[nH]c2c1` yielded a concentration at 0.25 h of 39 ng/mL. `Fc1ccc(CC[C@@H]2CN(Cc3c[nH]c4cc(Cl)ccc34)CCC2(F)F)cc1` gave a concentration at 0.25 h of 14.9 ng/mL. Compound `COc1ccc2c(CN3CCC(F)(F)[C@H](CCc4ccc(F)cc4)C3)c[nH]c2c1` has a concentration at 0.25 h of 9.2 ng/mL. `Fc1ccc(CC[C@@H]2CN(Cc3c[nH]c4cc(F)ccc34)CCC2(F)F)cc1` gave a concentration at 0.25 h of 13.2 ng/mL.

Target: D(2) dopamine receptor (Homo sapiens) (UniProt P14416)
Sequence (P14416 whole entry): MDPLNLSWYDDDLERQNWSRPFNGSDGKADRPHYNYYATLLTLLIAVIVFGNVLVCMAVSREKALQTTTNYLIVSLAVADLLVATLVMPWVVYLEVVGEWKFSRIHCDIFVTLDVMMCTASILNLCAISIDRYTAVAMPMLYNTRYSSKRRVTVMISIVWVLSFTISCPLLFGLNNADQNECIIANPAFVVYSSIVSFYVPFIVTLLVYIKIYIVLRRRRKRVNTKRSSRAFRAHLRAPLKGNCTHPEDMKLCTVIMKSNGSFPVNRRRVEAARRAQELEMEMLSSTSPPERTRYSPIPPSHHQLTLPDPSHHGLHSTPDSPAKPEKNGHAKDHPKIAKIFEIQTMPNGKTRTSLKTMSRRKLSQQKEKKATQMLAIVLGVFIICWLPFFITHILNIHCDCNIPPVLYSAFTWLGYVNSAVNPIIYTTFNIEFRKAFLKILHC
Assay: Displacement of [3H]Spiperone from recombinant human Dopamine D2S receptor expressed in CHO cell membranes at 10 uM after 120 mins relative to control
Details: not given
For `COc1ccc2c(CN3CCC(F)(F)[C@H](CCc4cccc(F)c4)C3)c[nH]c2c1`, the inhibition was < 50%. For `Fc1ccc(CC[C@@H]2CN(Cc3c[nH]c4cc(Cl)ccc34)CCC2(F)F)cc1`, the inhibition was < 50%. With `COc1ccc2c(CN3CCC(F)(F)[C@H](CCc4ccc(F)cc4)C3)c[nH]c2c1` the inhibition was < 30%. For `Fc1ccc(CC[C@@H]2CN(Cc3c[nH]c4cc(F)ccc34)CCC2(F)F)cc1`, the inhibition was < 50%.

Tested on: not listed separately
Assay: Intrinsic clearance in human liver microsomes by HPLC/MS analysis
Assay type: ADME
Details: read-out: CLH
For `COc1ccc2c(CN3CCC(F)(F)[C@H](CCc4cccc(F)c4)C3)c[nH]c2c1`, the CLint scaled was 300 mL/min/kg. For `Fc1ccc(CC[C@@H]2CN(Cc3c[nH]c4cc(Cl)ccc34)CCC2(F)F)cc1`, the CLint scaled was 99 mL/min/kg. Work on `COc1ccc2c(CN3CCC(F)(F)[C@H](CCc4ccc(F)cc4)C3)c[nH]c2c1` yielded a CLint scaled of 298 mL/min/kg.

Target: D(1A) dopamine receptor (Homo sapiens) (UniProt P21728)
Sequence (P21728 whole entry): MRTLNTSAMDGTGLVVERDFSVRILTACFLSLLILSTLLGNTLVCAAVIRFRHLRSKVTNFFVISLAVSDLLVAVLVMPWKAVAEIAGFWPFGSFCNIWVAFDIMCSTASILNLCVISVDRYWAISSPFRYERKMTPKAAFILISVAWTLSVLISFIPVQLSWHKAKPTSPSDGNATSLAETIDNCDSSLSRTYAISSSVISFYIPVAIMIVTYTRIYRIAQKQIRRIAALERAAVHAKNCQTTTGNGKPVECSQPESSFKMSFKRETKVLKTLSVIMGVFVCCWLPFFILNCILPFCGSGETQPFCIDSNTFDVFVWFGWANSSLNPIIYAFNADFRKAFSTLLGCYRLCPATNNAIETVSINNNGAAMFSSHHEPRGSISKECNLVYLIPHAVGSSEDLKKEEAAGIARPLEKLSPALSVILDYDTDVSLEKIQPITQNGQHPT
Assay: Displacement of [3H]SCH-23390 from recombinant human Dopamine D1 receptor expressed in CHO cell membranes at 10 uM after 120 mins relative to control
Details: not given
For `COc1ccc2c(CN3CCC(F)(F)[C@H](CCc4cccc(F)c4)C3)c[nH]c2c1`, the inhibition was < 50%. With `Fc1ccc(CC[C@@H]2CN(Cc3c[nH]c4cc(Cl)ccc34)CCC2(F)F)cc1` the inhibition was < 50%. For `COc1ccc2c(CN3CCC(F)(F)[C@H](CCc4ccc(F)cc4)C3)c[nH]c2c1`, the inhibition was < 30%. With `Fc1ccc(CC[C@@H]2CN(Cc3c[nH]c4cc(F)ccc34)CCC2(F)F)cc1` the inhibition was < 50%.

Tested on: not listed separately
Assay: Unbound fraction in rat plasma by HPLC/MS based equilibrium dialysis method
Assay type: ADME, cell-free
Details: not given
In the case of `COc1ccc2c(CN3CCC(F)(F)[C@H](CCc4cccc(F)c4)C3)c[nH]c2c1`, the fraction unbound is reported as 0.002. `Fc1ccc(CC[C@@H]2CN(Cc3c[nH]c4cc(Cl)ccc34)CCC2(F)F)cc1` showed a fraction unbound of 0.003. Compound `COc1ccc2c(CN3CCC(F)(F)[C@H](CCc4ccc(F)cc4)C3)c[nH]c2c1` has a fraction unbound of 0.009. Work on `Fc1ccc(CC[C@@H]2CN(Cc3c[nH]c4cc(F)ccc34)CCC2(F)F)cc1` yielded a fraction unbound of 0.011.

Tested on: CHO-K1
Assay: Displacement of [3H] Spiperone from recombinant human Dopamine D4.4 receptor expressed in CHO-K1 cell membranes at 0.1 uM after 120 mins relative to control
Details: not given
Compound `COc1ccc2c(CN3CCC(F)(F)[C@H](CCc4cccc(F)c4)C3)c[nH]c2c1` has an inhibition of 83%. For `Fc1ccc(CC[C@@H]2CN(Cc3c[nH]c4cc(Cl)ccc34)CCC2(F)F)cc1`, the inhibition was 85%.

Tested on: not listed separately
Assay: Drug uptake in rat brain at 0.25 mg/kg, iv administered through cassette dosing after 0.25 hrs by LC/MS/MS analysis
Assay type: ADME, organism-based
Details: brain, read-out: Drug uptake
For `COc1ccc2c(CN3CCC(F)(F)[C@H](CCc4cccc(F)c4)C3)c[nH]c2c1`, the concentration at 0.25 h was 43.5 ng/g. Work on `Fc1ccc(CC[C@@H]2CN(Cc3c[nH]c4cc(Cl)ccc34)CCC2(F)F)cc1` yielded a concentration at 0.25 h of 19.6 ng/g. `COc1ccc2c(CN3CCC(F)(F)[C@H](CCc4ccc(F)cc4)C3)c[nH]c2c1` showed a concentration at 0.25 h of 30.3 ng/g. For `Fc1ccc(CC[C@@H]2CN(Cc3c[nH]c4cc(F)ccc34)CCC2(F)F)cc1`, the concentration at 0.25 h was 25.5 ng/g.

Tested on: not listed separately
Assay: Ratio of drug level in brain to plasma in rat at 0.25 mg/kg, iv administered through cassette dosing after 0.25 hrs by LC/MS/MS analysis
Assay type: ADME, organism-based
Details: not given
Compound `COc1ccc2c(CN3CCC(F)(F)[C@H](CCc4cccc(F)c4)C3)c[nH]c2c1` has a Kp at 0.25 h of 1.1. Compound `Fc1ccc(CC[C@@H]2CN(Cc3c[nH]c4cc(Cl)ccc34)CCC2(F)F)cc1` has a Kp at 0.25 h of 1.3. Work on `COc1ccc2c(CN3CCC(F)(F)[C@H](CCc4ccc(F)cc4)C3)c[nH]c2c1` yielded a Kp at 0.25 h of 3.3. `Fc1ccc(CC[C@@H]2CN(Cc3c[nH]c4cc(F)ccc34)CCC2(F)F)cc1` gave a Kp at 0.25 h of 1.9.

Tested on: not listed separately
Assay: Displacement of [3H]Spiperone from recombinant human Dopamine D4.4 receptor expressed in CHO-K1 cell membranes after 120 mins
Details: not given
Compound `COc1ccc2c(CN3CCC(F)(F)[C@H](CCc4cccc(F)c4)C3)c[nH]c2c1` has an IC50 of 18.6 nM and a Ki of 5.2 nM. `Fc1ccc(CC[C@@H]2CN(Cc3c[nH]c4cc(Cl)ccc34)CCC2(F)F)cc1` showed an IC50 of 21 nM and a Ki of 5.8 nM. For `COc1ccc2c(CN3CCC(F)(F)[C@H](CCc4ccc(F)cc4)C3)c[nH]c2c1`, the IC50 was 7 nM and the Ki was 1.9 nM. Work on `Fc1ccc(CC[C@@H]2CN(Cc3c[nH]c4cc(F)ccc34)CCC2(F)F)cc1` yielded an IC50 of 7.4 nM and a Ki of 2.1 nM.

Target: D(2) dopamine receptor (Homo sapiens) (UniProt P14416)
Assay: Displacement of [3H]Spiperone from recombinant human Dopamine D2L receptor expressed in CHO cell membranes at 10 uM after 120 mins relative to control
Details: not given
For `COc1ccc2c(CN3CCC(F)(F)[C@H](CCc4cccc(F)c4)C3)c[nH]c2c1`, the inhibition was 53%. In the case of `Fc1ccc(CC[C@@H]2CN(Cc3c[nH]c4cc(Cl)ccc34)CCC2(F)F)cc1`, the inhibition is reported as 51%. `COc1ccc2c(CN3CCC(F)(F)[C@H](CCc4ccc(F)cc4)C3)c[nH]c2c1` showed an inhibition of 67%. `Fc1ccc(CC[C@@H]2CN(Cc3c[nH]c4cc(F)ccc34)CCC2(F)F)cc1` showed an inhibition of 53%.

Tested on: not listed separately
Assay: Intrinsic clearance in rat liver microsomes by HPLC/MS analysis
Assay type: ADME
Details: read-out: CLH
For `COc1ccc2c(CN3CCC(F)(F)[C@H](CCc4cccc(F)c4)C3)c[nH]c2c1`, the CLint scaled was 1060 mL/min/kg. Work on `Fc1ccc(CC[C@@H]2CN(Cc3c[nH]c4cc(Cl)ccc34)CCC2(F)F)cc1` yielded a CLint scaled of 582 mL/min/kg. `COc1ccc2c(CN3CCC(F)(F)[C@H](CCc4ccc(F)cc4)C3)c[nH]c2c1` gave a CLint scaled of 957 mL/min/kg.

Tested on: CHO-K1
Assay: Displacement of [3H] Spiperone from recombinant human Dopamine D4.4 receptor expressed in CHO-K1 cell membranes at 10 nM after 120 mins relative to control
Details: not given
For `COc1ccc2c(CN3CCC(F)(F)[C@H](CCc4ccc(F)cc4)C3)c[nH]c2c1`, the inhibition was 63%. Work on `Fc1ccc(CC[C@@H]2CN(Cc3c[nH]c4cc(F)ccc34)CCC2(F)F)cc1` yielded an inhibition of 59%.

Source: ChEMBL document CHEMBL3868641, “Discovery, characterization and biological evaluation of a novel (R)-4,4-difluoropiperidine scaffold as dopamine receptor 4 (D4R) antagonists” (Bioorg Med Chem Lett, 2016)
